In US20210047291A1, “PESTICIDALLY ACTIVE HETEROCYCLIC DERIVATIVES WITH SULFUR CONTAINING SUBSTITUENTS” (SYNGENTA PARTICIPATIONS AG, priority 2018, published 2021):

Legend:
Assay type in all cases: in vivo
[1] = tested on: Myzus persicae (Green peach aphid); test: Example B6: Myzus persicae systemic activity, pea seedlings; details: for mortality at 1.5 ppm: Concentration 1.5 ppm, Myzus persicae (systemic, Example B6), read-out: Mortality (%); for mortality at 24 ppm: Myzus persicae, 144 h, test rate of 24 ppm, mixed ages, 6 days after placing seedlings into test solutions, read-out: mortality
Description: Roots of pea seedlings infested with an aphid population of mixed ages were placed directly into aqueous test solutions prepared from 10,000 DMSO stock solutions. The samples were assessed for mortality 6 days after placing seedlings into test solutions.

[2] = tested on: Euschistus heros (Neotropical Brown Stink Bug); test: Example B3: Euschistus heros, soybean leaves, N2 nymphs; details: for mortality at 50 ppm: Concentration 50 ppm, Euschistus heros (Example B3), read-out: Mortality (%); for percent effect (mortality or growth inhibition) at 200 ppm: Euschistus heros, 120 h, application rate of 200 ppm, N2 nymphs, 5 days after infestation, read-out: effect in at least one of the two categories (mortality or growth inhibition)
Description: Soybean leaves on agar in 24-well microtiter plates were sprayed with aqueous test solutions prepared from 10,000 ppm DMSO stock solutions. After drying the leaves were infested with N2 nymphs. The samples were assessed for mortality and growth inhibition in comparison to untreated samples 5 days after infestation.

Melodoigyne incognita = test: Example B14: Melodoigyne incognita juvenile mobility, in vitro profiling in 96 well plate; details: 200 ppm; after 24 h; second stage juveniles; read-out: control (juvenile mobility)
Description: Test solutions are prepared from 10,000 ppm DMSO stock solutions with a TECAN robot to achieve 20 μL of 1000, 200, 100, 50, 25 and 12.5 ppm. For each concentration three replicates are produced. Per well, 80 μL nematode solution is added containing 100 to 150 freshly harvested second stage juveniles of Melodoigyne incognita. The plates are covered and stored at room temperature in the dark and incubated for 24 h. Mobility of the exposed juveniles in a treated well is measured using an imaging tool and compared to an average of 12 untreated replicates.

[3] = tested on: Myzus persicae (Green peach aphid); test: Example B5: Myzus persicae feeding/contact activity, sunflower leaf discs; details: foliar; for mortality at 200 ppm: Myzus persicae, 144 h, application rate of 200 ppm, mixed ages, 6 days after infestation, read-out: mortality; for mortality at 12.5 ppm: Concentration 12.5 ppm, Myzus persicae (feeding/contact, Example B5), read-out: Mortality (%)
Description: Sunflower leaf discs were placed onto agar in a 24-well microtiter plate and sprayed with aqueous test solutions prepared from 10,000 ppm DMSO stock solutions. After drying, the leaf discs were infested with an aphid population of mixed ages. The samples were assessed for mortality 6 days after infestation.

[4] = tested on: Diabrotica Balteata (Corn Root Worm); test: Example B2: Diabrotica balteata, maize sprouts, L2 larvae; details: for percent effect (mortality or growth inhibition) at 200 ppm: Diabrotica balteata, 96 h, application rate of 200 ppm, L2 larvae, 4 days after infestation, read-out: effect in at least one of the two categories (mortality or growth inhibition)
Description: Maize sprouts placed onto an agar layer in 24-well microtiter plates were treated with aqueous test solutions prepared from 10,000 ppm DMSO stock solutions by spraying. After drying, the plates were infested with L2 larvae (6 to 10 per well). The samples were assessed for mortality and growth inhibition in comparison to untreated samples 4 days after infestation.

[5] = tested on: Plutella xylostella (Diamond Back Moth); test: Example B7: Plutella xylostella, artificial diet, L2 larvae; details: 120 h, application rate of 200 ppm, L2 larvae, 5 days after infestation, read-out: effect in at least one of the two categories (mortality or growth inhibition)
Description: 24-well microtiter plates with artificial diet were treated with aqueous test solutions prepared from 10,000 ppm DMSO stock solutions by pipetting. After drying, the plates were infested with L2 larvae (10 to 15 per well). The samples were assessed for mortality and growth inhibition in comparison to untreated samples 5 days after infestation.

SMILES | mortality at 24 ppm [1] | percent effect (mortality or growth inhibition) at 200 ppm [2] | pest or weed control at 200 ppm (Melodoigyne incognita) | mortality at 200 ppm [3] | other results
CCS(=O)(=O)c1cc(N2CCNC2=O)cnc1-c1nc2cc(C(F)(F)F)ncc2n1C [P36, 1-[5-ethylsulfonyl-6-[3-methyl-6-(trifluoromethyl)imidazo[4,5-c]pyridin-2-yl]-3-pyridyl]imidazolidin-2-one] | ≥ 80% | ≥ 80% | ≥ 80% | ≥ 80% | mortality at 1.5 ppm [1]: 100%; mortality at 50 ppm [2]: 100%; mortality at 12.5 ppm [3]: 90%
CCS(=O)(=O)c1ccc(N2CCN(C)C2=O)nc1-c1nc2cc(C(F)(F)F)ncc2n1C [reference compound] |  |  |  |  | mortality at 1.5 ppm [1]: 0%; mortality at 50 ppm [2]: 50%; mortality at 12.5 ppm [3]: 80%
CCSc1cc(N(C)C(C)=O)cnc1-c1nc2cc(C(F)(F)F)ncc2n1C [P33, N-[5-ethylsulfanyl-6-[3-methyl-6-(trifluoromethyl)imidazo[4,5-c]pyridin-2-yl]-3-pyridyl]-N-methyl-acetamide] |  | ≥ 80% |  | ≥ 80% | 
CCS(=O)(=O)c1cc(N(C)C(=O)CCS(C)(=O)=O)cnc1-c1nc2cc(C(F)(F)F)ncc2n1C [P31, N-[5-ethylsulfonyl-6-[3-methyl-6-(trifluoromethyl)imidazo[4,5-c]pyridin-2-yl]-3-pyridyl]-N-methyl-3-methylsulfonyl-propanamide] |  | ≥ 80% |  | ≥ 80% | 
CCS(=O)(=O)c1cc(NC(=O)C(F)(F)F)cnc1-c1nc2cc(C(F)(F)F)ncc2n1C [P44, N-[5-ethylsulfonyl-6-[3-methyl-6-(trifluoromethyl)imidazo[4,5-c]pyridin-2-yl]-3-pyridyl]-2,2,2-trifluoro-acetamide] |  | ≥ 80% | ≥ 80% | ≥ 80% | percent effect (mortality or growth inhibition) at 200 ppm [4]: ≥ 80%
CCS(=O)(=O)c1cc(N(C)C(C)=O)ccc1-c1nc2cc(C(F)(F)F)ncc2n1C [P16, N-[3-ethylsulfonyl-4-[3-methyl-6-(trifluoromethyl)imidazo[4,5-c]pyridin-2-yl]phenyl]-N-methyl-acetamide] | ≥ 80% | ≥ 80% |  | ≥ 80% | 
CCSc1cc(N(C(C)=O)C(C)C)cnc1-c1nc2cc(C(F)(F)F)ncc2n1C [P47, N-[5-ethylsulfanyl-6-[3-methyl-6-(trifluoromethyl)imidazo[4,5-c]pyridin-2-yl]-3-pyridyl]-N-isopropyl-acetamide] |  | ≥ 80% |  |  | 
CCS(=O)(=O)c1cc(NC(C)=O)cnc1-c1nc2cc(C(F)(F)F)ncc2n1C [drawing 155, reference compound] |  |  |  |  | Mortality (%) ([4]; Concentration 200 ppm, Diabrotica balteata (Example B2)): 0%
CCS(=O)(=O)c1cc(N2CCS(=O)(=O)CC2=O)cnc1-c1nc2cc(C(F)(F)F)ncc2n1C [P18, 4-[5-ethylsulfonyl-6-[3-methyl-6-(trifluoromethyl)imidazo[4,5-c]pyridin-2-yl]-3-pyridyl]-1,1-dioxo-1,4-thiazinan-3-one] |  | ≥ 80% |  |  | 
CCS(=O)(=O)c1cc(NC(=O)C2CC2)cnc1-c1nc2cc(C(F)(F)F)cnc2n1C [reference compound] |  |  |  |  | mortality at 1.5 ppm [1]: 0%
CCS(=O)(=O)c1cc(N(C)C(=O)CC(F)(F)F)cnc1-c1nc2cc(C(F)(F)F)ncc2n1C [P28, N-[5-ethylsulfonyl-6-[3-methyl-6-(trifluoromethyl)imidazo[4,5-c]pyridin-2-yl]-3-pyridyl]-3,3,3-trifluoro-N-methyl-propanamide] | ≥ 80% | ≥ 80% |  | ≥ 80% | percent effect (mortality or growth inhibition) at 200 ppm [4]: ≥ 80%
CCS(=O)(=O)c1cc(N(C)C(=O)CCSC)cnc1-c1nc2cc(C(F)(F)F)ncc2n1C [P41, N-[5-ethylsulfonyl-6-[3-methyl-6-(trifluoromethyl)imidazo[4,5-c]pyridin-2-yl]-3-pyridyl]-N-methyl-3-methylsulfanyl-propanamide] |  | ≥ 80% | ≥ 80% | ≥ 80% | 
CCS(=O)(=O)c1cc(NC(=O)C(C)(C)C)cnc1-c1nc2cc(C(F)(F)F)ncc2n1C [P39, N-[5-ethylsulfonyl-6-[3-methyl-6-(trifluoromethyl)imidazo[4,5-c]pyridin-2-yl]-3-pyridyl]-2,2-dimethyl-propanamide] | ≥ 80% | ≥ 80% | ≥ 80% | ≥ 80% | 
CCS(=O)(=O)c1cc(N2CCOCC2=O)cnc1-c1nc2cc(C(F)(F)F)ncc2n1C [P15, 4-[5-ethylsulfonyl-6-[3-methyl-6-(trifluoromethyl)imidazo[4,5-c]pyridin-2-yl]-3-pyridyl]morpholin-3-one] | ≥ 80% | ≥ 80% | ≥ 80% | ≥ 80% | 
CCC(=O)Nc1cnc(-c2nc3cc(C(F)(F)F)ncc3n2C)c(S(=O)(=O)CC)c1 [P25, N-[5-ethylsulfonyl-6-[3-methyl-6-(trifluoromethyl)imidazo[4,5-c]pyridin-2-yl]-3-pyridyl]propanamide] | ≥ 80% | ≥ 80% | ≥ 80% | ≥ 80% | percent effect (mortality or growth inhibition) at 200 ppm [4]: ≥ 80%; percent effect (mortality or growth inhibition) at 200 ppm [5]: ≥ 80%
CCS(=O)(=O)c1cc(NC(=O)C(C)(C)O)cnc1-c1nc2cc(C(F)(F)F)ncc2n1C [P8, N-[5-ethylsulfonyl-6-[3-methyl-6-(trifluoromethyl)imidazo[4,5-c]pyridin-2-yl]-3-pyridyl]-2-hydroxy-2-methyl-propanamide] | ≥ 80% | ≥ 80% |  | ≥ 80% | 
CCN(C(=O)CCl)c1cnc(-c2nc3cc(C(F)(F)F)ncc3n2C)c(S(=O)(=O)CC)c1 [P20, 2-chloro-N-ethyl-N-[5-ethylsulfonyl-6-[3-methyl-6-(trifluoromethyl)imidazo[4,5-c]pyridin-2-yl]-3-pyridyl]acetamide] | ≥ 80% | ≥ 80% | ≥ 80% | ≥ 80% | percent effect (mortality or growth inhibition) at 200 ppm [4]: ≥ 80%
CCS(=O)(=O)c1cc(N2CCN(C)C2=O)cnc1-c1nc2cc(C(F)(F)F)ncc2n1C [P37, 1-[5-ethylsulfonyl-6-[3-methyl-6-(trifluoromethyl)imidazo[4,5-c]pyridin-2-yl]-3-pyridyl]-3-methyl-imidazolidin-2-one] | ≥ 80% | ≥ 80% | ≥ 80% | ≥ 80% | mortality at 1.5 ppm [1]: 100%; mortality at 50 ppm [2]: 100%; mortality at 12.5 ppm [3]: 90%
CCS(=O)(=O)c1cc(-n2ccccc2=O)cnc1-c1nc2cc(C(F)(F)F)ncc2n1C [reference compound] |  |  |  |  | mortality at 1.5 ppm [1]: 0%; mortality at 50 ppm [2]: 50%; mortality at 12.5 ppm [3]: 0%
CCS(=O)(=O)c1cc(N(C)C(=O)C(C)(C)C)cnc1-c1nc2cc(C(F)(F)F)ncc2n1C [P26, N-[5-ethylsulfonyl-6-[3-methyl-6-(trifluoromethyl)imidazo[4,5-c]pyridin-2-yl]-3-pyridyl]-N,2,2-trimethyl-propanamide] | ≥ 80% | ≥ 80% | ≥ 80% | ≥ 80% | percent effect (mortality or growth inhibition) at 200 ppm [5]: ≥ 80%
CCC(=O)N(CC(F)(F)F)c1cnc(-c2nc3cc(C(F)(F)F)ncc3n2C)c(S(=O)(=O)CC)c1 [P32, N-[5-ethylsulfonyl-6-[3-methyl-6-(trifluoromethyl)imidazo[4,5-c]pyridin-2-yl]-3-pyridyl]-N-(2,2,2-trifluoroethyl)propanamide] | ≥ 80% | ≥ 80% |  | ≥ 80% | percent effect (mortality or growth inhibition) at 200 ppm [4]: ≥ 80%
